We go through 17 molecules from patent publication US9708336B2, “Metallo-beta-lactamase inhibitors” (priority 2014, dated 2017).

One may read the IC50 as the point on the concentration scale where inhibition reaches its midpoint.

Like-named read-outs stand apart in the source and are kept apart here.

One assay deals with NDM-1 (Klebsiella pneumoniae, UniProt C7C422). The assay is described as follows: biochemical. Format: biochemical.
The target of another assay is IMP-1 (Serratia marcescens, UniProt P52699). Nature of the assay: biochemical. Format: biochemical. The conditions noted are these: IMP-1 enzyme, CCF2-FA substrate; read-out: IMP-1 IC50.
Sequence of IMP-1 (P52699 whole entry, looked up): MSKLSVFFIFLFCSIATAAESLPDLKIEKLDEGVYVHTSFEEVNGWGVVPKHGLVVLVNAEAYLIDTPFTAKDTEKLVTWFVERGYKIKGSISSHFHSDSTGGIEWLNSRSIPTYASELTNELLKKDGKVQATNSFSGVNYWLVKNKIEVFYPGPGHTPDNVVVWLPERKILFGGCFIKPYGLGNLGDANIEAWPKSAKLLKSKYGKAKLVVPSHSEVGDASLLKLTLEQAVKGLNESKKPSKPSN
A further assay has as its target VIM-1 (Pseudomonas aeruginosa (strain ATCC 15692 / DSM 22644 / CIP 104116 / JCM 14847 / LMG 12228 / 1C / PRS 101 / PAO1), UniProt A0A0F7KYQ8). The assay is described as follows: Enzyme activity: determination of IC50, fluorescence assay with CCF2-FA substrate (VIM-1). Format: biochemical. To be noted: CCF2-FA substrate.
The subject of assay [1] is Escherichia coli expressing NDM-1 (CLB30016). The assay is described as follows: Antibiotic potentiation activity: synergistic concentration (MITC95) with imipenem, OD600 growth. The assay is classed as cell-based. The conditions noted are these: (CLB30016, NDM-1), 95% growth inhibition. Put shortly: (§1)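 Growth after 22–24 h at 35 °C is measured spectrophotometrically for bacteria incubated with compound plus imipenem (4 μg/ml in-well, or 1 μg/ml). Cells come from overnight agar colonies resuspended in saline and diluted 1:100 in 1.1× CAMHB.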

In assay [2] the test system is Klebsiella pneumoniae expressing VIM-1 (IHMA599644). The assay is described as above. Format: cell-based. The conditions noted are these: Klebsiella pneumoniae IHMA599644 (VIM-1), 95% growth inhibition. Put shortly:
as §1

The subject of assay [3] is Serratia marcescens expressing IMP-1 (CL5741). The assay is described as above. Format: cell-based. To be noted: Serratia marcescens CL5741 (IMP-1), 95% growth inhibition. In a few lines: as §1
The mark [4] stands for this setting: NDM-1 enzyme, CCF2-FA substrate, read-out: NDM-1 IC50.
[5] abbreviates: VIM-1 enzyme, read-out: VIM-1 IC50.

Sequence of NDM-1 (C7C422 whole entry, looked up, species assumed): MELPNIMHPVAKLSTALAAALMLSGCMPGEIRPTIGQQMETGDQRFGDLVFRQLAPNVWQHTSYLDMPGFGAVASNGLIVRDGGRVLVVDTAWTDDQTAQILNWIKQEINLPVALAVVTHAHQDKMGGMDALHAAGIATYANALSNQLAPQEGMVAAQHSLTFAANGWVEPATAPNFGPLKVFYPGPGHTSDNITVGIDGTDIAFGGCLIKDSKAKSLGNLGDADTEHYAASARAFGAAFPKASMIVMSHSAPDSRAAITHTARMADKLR

With `NS(=O)(=O)c1c(C(F)(F)F)ccc([C@H]2CC[C@@H](C3=NCCN3)CC2)c1-c1nnn[nH]1` [Example 505, 3-(cis 4-(4,5-dihydro-1H-imidazol-2-yl)cyclohexyl)-2-(1H-tetrazol-5-yl)-6-(trifluoromethyl)benzenesulfonamide], the IC50 against NDM-1 was found to be 9.54 nM; on IMP-1 it was 22.2 nM; against VIM-1 (VIM-1 IC50, VIM-1 enzyme) it was 0.937 nM. Besides, in assay [1], the “Escherichia coli MITC95” value came out at 6.25 µM. Moreover, the “Klebsiella pneumoniae MITC95” value in assay [2] was determined as 12.5 µM. For the same molecule, the “Serratia marcescens MITC95” value in assay [3] amounted to 6.25 µM.
With `NS(=O)(=O)c1c(C(F)(F)F)ccc([C@H]2CC[C@H](C3=NCCN3)CC2)c1-c1nnn[nH]1` [Example 506, 3-(trans 4-(4,5-dihydro-1H-imidazol-2-yl)cyclohexyl)-2-(1H-tetrazol-5-yl)-6-(trifluoromethyl)benzenesulfonamide], the IC50 against NDM-1 was 2.22 nM; on IMP-1, 35.7 nM; against VIM-1 (VIM-1 IC50, VIM-1 enzyme) it was 41.4 nM. The “Escherichia coli MITC95” value in assay [1] was determined as 4.688 µM. For the same molecule, the “Klebsiella pneumoniae MITC95” value in assay [2] amounted to 100 µM. For the same molecule, the “Serratia marcescens MITC95” value in assay [3] came to 6.25 µM.
Consider `Nc1ncc(C#Cc2ccc(C(F)(F)F)c(S(N)(=O)=O)c2-c2nn[nH]n2)cc1CO` [Example 507, 3-((6-Amino-5-(hydroxymethyl)pyridin-3-yl)ethynyl)-2-(2H-tetrazol-5-yl)-6-(trifluoromethyl)benzenesulfonamide], for which the IC50 on NDM-1 (setting [4]) was found to be 11.5 nM; at IMP-1, 4.31 nM; against VIM-1 (VIM-1 IC50, VIM-1 enzyme) it was 3.27 nM. Further, the “Escherichia coli MITC95” value in assay [1] turned out to be 4.688 µM. Further, in assay [2], the “Klebsiella pneumoniae MITC95” value is 25 µM. In assay [3], the “Serratia marcescens MITC95” value turned out to be 0.5859 µM.
In the case of `Nc1ncc(CCc2ccc(C(F)(F)F)c(S(N)(=O)=O)c2-c2nn[nH]n2)cc1CO` [Example 508, 3-(2-(6-Amino-5-(hydroxymethyl)pyridin-3-yl)ethyl)-2-(2H-tetrazol-5-yl)-6-(trifluoromethyl)benzenesulfonamide], the IC50 stood at 4.55 nM on NDM-1 (setting [4]), 2.37 nM at IMP-1 and 1.66 nM on VIM-1 (setting [5]). For the same molecule, the “Escherichia coli MITC95” value in assay [1] amounted to 0.8359 µM. The “Klebsiella pneumoniae MITC95” value in assay [2] came out at 3.125 µM. Further, the “Serratia marcescens MITC95” value in assay [3] was 0.0625 µM.
On to `NCC(CN)c1ccc(-c2cccc(S(N)(=O)=O)c2-c2nnn[nH]2)cc1` [Example 509, 4′-(1,3-Diaminopropan-2-yl)-2-(1H-tetrazol-5-yl)-[1,1′-biphenyl]-3-sulfonamide], for which the values for the IC50 on NDM-1 (setting [4]), at IMP-1 and on VIM-1 (setting [5]) were 57.4 nM, 929 nM and 396 nM, respectively. Further, the “Escherichia coli MITC95” value in assay [1] came to 1.563 µM. Further, the “Klebsiella pneumoniae MITC95” value in assay [2] worked out at 50 µM. Further, in assay [3], the “Serratia marcescens MITC95” value came out at 12.5 µM.
Turning to `NS(=O)(=O)c1c(C(F)(F)F)ccc(C2CCCc3sc(C(=O)O)nc32)c1-c1nnn[nH]1` (stereo not drawn) [Example 510, 4-(3-Sulfamoyl-2-(1H-tetrazol-5-yl)-4-(trifluoromethyl)phenyl)-4,5,6,7-tetrahydrobenzo[d]thiazole-2-carboxylic acid], the IC50 was 3.42 nM on NDM-1 (setting [4]), 47.4 nM on IMP-1 and 12.8 nM on VIM-1 (setting [5]). Also, the “Escherichia coli MITC95” value in assay [1] came to 50 µM. Also, the “Klebsiella pneumoniae MITC95” value in assay [2] is above 200 µM. Further, the “Serratia marcescens MITC95” value in assay [3] amounted to 200 µM.
For `NC1=NCC(c2ccc(-c3cccc(S(N)(=O)=O)c3-c3nnn[nH]3)cc2)CN1` (stereo not drawn) [Example 511, 4′-(2-Amino-1,4,5,6-tetrahydropyrimidin-5-yl)-2-(1H-tetrazol-5-yl)-[1,1′-biphenyl]-3-sulfonamide], the 50% inhibitory concentration (IC50) came to 4.8 nM at NDM-1 (setting [4]); 14.3 nM at IMP-1; 41.6 nM on VIM-1 (VIM-1 IC50, VIM-1 enzyme). The “Escherichia coli MITC95” value in assay [1] came to 3.125 µM. The “Klebsiella pneumoniae MITC95” value in assay [2] was 100 µM. Also, the “Serratia marcescens MITC95” value in assay [3] was 3.125 µM.
For the molecule `COCc1cc(CCc2ccc(C(F)(F)F)c(S(N)(=O)=O)c2-c2nn[nH]n2)cnc1N` [Example 512, 3-(2-(6-Amino-5-(methoxymethyl)pyridin-3-yl)ethyl)-2-(2H-tetrazol-5-yl)-6-(trifluoromethyl)benzenesulfonamide], the IC50 came out at 162 nM on NDM-1 (setting [4]), 46 nM on IMP-1 and 3.9 nM at VIM-1 (setting [5]). Besides, the “Escherichia coli MITC95” value in assay [1] is 9.375 µM. Also, the “Klebsiella pneumoniae MITC95” value in assay [2] worked out at 2.344 µM. In assay [3], the “Serratia marcescens MITC95” value is 0.9766 µM.
For the molecule `NCc1ncc(CCc2ccc(C(F)(F)F)c(S(N)(=O)=O)c2-c2nn[nH]n2)cc1N` [Example 513, 3-(2-(5-Amino-6-(aminomethyl)pyridin-3-yl)ethyl)-2-(2H-tetrazol-5-yl)-6-(trifluoromethyl)benzenesulfonamide], the IC50 turned out to be 9.35 nM on NDM-1 (setting [4]), 3.61 nM on IMP-1 and 1.18 nM on VIM-1 (setting [5]). In assay [1], the “Escherichia coli MITC95” value amounted to 12.5 µM. Further, in assay [2], the “Klebsiella pneumoniae MITC95” value stood at 9.375 µM. The “Serratia marcescens MITC95” value in assay [3] worked out at 9.375 µM.
Turning to `NS(=O)(=O)c1c(C(F)(F)F)ccc(-c2cccc3c2ccc[n+]3[O-])c1-c1nn[nH]n1` [Example 514, 5-(3-Sulfamoyl-2-(2H-tetrazol-5-yl)-4-(trifluoromethyl)phenyl)quinoline 1-oxide], the IC50 on NDM-1 (setting [4]) amounted to 1.15 nM; at IMP-1, 6.08 nM; at VIM-1 (setting [5]) it was 0.138 nM. For the same molecule, the “Escherichia coli MITC95” value in assay [1] stood at 3.125 µM. Besides, the “Klebsiella pneumoniae MITC95” value in assay [2] worked out at 9.375 µM. The “Serratia marcescens MITC95” value in assay [3] was found to be 1.172 µM.
Consider `NS(=O)(=O)c1c(C(F)(F)F)ccc(-c2cccc3cnccc23)c1-c1nn[nH]n1` [Example 515, 3-(Isoquinolin-5-yl)-2-(2H-tetrazol-5-yl)-6-(trifluoromethyl)benzenesulfonamide], for which the IC50 at NDM-1 (setting [4]) was 0.603 nM; on IMP-1 it was 3.68 nM; on VIM-1 (VIM-1 IC50, VIM-1 enzyme), 0.309 nM. The “Escherichia coli MITC95” value in assay [1] was found to be 4.688 µM. The “Klebsiella pneumoniae MITC95” value in assay [2] was found to be 6.25 µM. The “Serratia marcescens MITC95” value in assay [3] came out at 0.3906 µM.
For the molecule `NS(=O)(=O)c1c(C(F)(F)F)ccc(-c2cccc3c[n+]([O-])ccc23)c1-c1nn[nH]n1` [Example 516, 5-(3-Sulfamoyl-2-(2H-tetrazol-5-yl)-4-(trifluoromethyl)phenyl)isoquinoline 2-oxide], the results for the IC50 on NDM-1 (setting [4]), at IMP-1 and at VIM-1 (setting [5]) were 2.4 nM, 12.6 nM and 0.277 nM, respectively. Moreover, in assay [1], the “Escherichia coli MITC95” value was found to be 6.25 µM. In addition, the “Klebsiella pneumoniae MITC95” value in assay [2] was 6.25 µM. The “Serratia marcescens MITC95” value in assay [3] was found to be 0.7813 µM.
As to `NS(=O)(=O)c1c(C(F)(F)F)ccc(-c2cccc3c2CCNC3)c1-c1nn[nH]n1` [Example 517, 3-(1,2,3,4-Tetrahydroisoquinolin-5-yl)-2-(2H-tetrazol-5-yl)-6-(trifluoromethyl)benzenesulfonamide], the IC50 is 5.88 nM at NDM-1 (setting [4]), 37.2 nM on IMP-1 and 0.937 nM on VIM-1 (setting [5]). For the same molecule, in assay [1], the “Escherichia coli MITC95” value was determined as 3.125 µM. In addition, in assay [2], the “Klebsiella pneumoniae MITC95” value is 1.563 µM. The “Serratia marcescens MITC95” value in assay [3] came out at 3.125 µM.
On to `NS(=O)(=O)c1c(C(F)(F)F)ccc(-c2cccc3c2CCCN3)c1-c1nnn[nH]1` [Example 518, 3-(1,2,3,4-Tetrahydroquinolin-5-yl)-2-(1H-tetrazol-5-yl)-6-(trifluoromethyl)benzenesulfonamide], for which the IC50 at NDM-1 (setting [4]) turned out to be 0.775 nM; on IMP-1 it was 1.62 nM; on VIM-1 (VIM-1 IC50, VIM-1 enzyme), 0.342 nM. Moreover, the “Escherichia coli MITC95” value in assay [1] was found to be 1.563 µM. Also, in assay [2], the “Klebsiella pneumoniae MITC95” value was determined as 6.25 µM. Also, in assay [3], the “Serratia marcescens MITC95” value was 0.3906 µM.
As to `NS(=O)(=O)c1cccc(C2CCCc3ncccc32)c1-c1nn[nH]n1` (stereo not drawn) [Example 519, 3-(5,6,7,8-Tetrahydroquinolin-5-yl)-2-(2H-tetrazol-5-yl)benzenesulfonamide], the IC50 at NDM-1 (setting [4]) was 3.78 nM; on IMP-1, 766 nM; at VIM-1 (VIM-1 IC50, VIM-1 enzyme), 24.6 nM. Besides, the “Escherichia coli MITC95” value in assay [1] is 1.563 µM. Also, the “Klebsiella pneumoniae MITC95” value in assay [2] is 37.5 µM. Besides, the “Serratia marcescens MITC95” value in assay [3] stood at 100 µM.
As for `NS(=O)(=O)c1cccc(-c2cccc3c2OCC3=O)c1-c1nn[nH]n1` [Example 521, 3-(3-Oxo-2,3-dihydrobenzofuran-7-yl)-2-(2H-tetrazol-5-yl)benzenesulfonamide], the IC50 stood at 3.44 nM on NDM-1 (setting [4]), 559 nM on IMP-1 and 19.7 nM on VIM-1 (setting [5]). Moreover, the “Escherichia coli MITC95” value in assay [1] stood at 1.563 µM. For the same molecule, the “Klebsiella pneumoniae MITC95” value in assay [2] was 12.5 µM. In addition, in assay [3], the “Serratia marcescens MITC95” value turned out to be 12.5 µM.
With `NS(=O)(=O)c1cccc(-c2cccc3ccoc23)c1-c1nn[nH]n1` [Example 522, 3-(Benzofuran-7-yl)-2-(2H-tetrazol-5-yl)benzenesulfonamide], the IC50 on NDM-1 (setting [4]) was determined as 3.4 nM; on IMP-1, 263 nM; on VIM-1 (setting [5]), 52.9 nM. Besides, the “Escherichia coli MITC95” value in assay [1] stood at 2.344 µM. In addition, the “Klebsiella pneumoniae MITC95” value in assay [2] came out at 50 µM. Besides, in assay [3], the “Serratia marcescens MITC95” value came out at 18.75 µM.
